# US6063778A, “Cephalosporin derivatives and processes for the preparation thereof” (Il-Dong Pharm. Co., Ltd., priority 1995, dated 2000)
# Where two headings read alike, the source gives them in different places.
# Tests used:
# [1] = test system: Enterobacter cloace 1321E; test: MIC by agar dilution, in vitro activity test; assay type: cell-based; conditions: 37° C., 18 to 20 hours, read-out: Minimal Inhibitory Concentration (MIC)
# Method: (§1) These MIC values were determined by agar dilution method: that is, two-fold dilutions of each of the test compounds were made and dispersed in a Mueller-Hinton Broth medium. Standard test strain which had the 10^6 CFU per ml was inoculated on the medium, and was incubated at 37° C. for 18 to 20 hours.
# [2] = test system: Enterobacter cloace P99; test: MIC by agar dilution, in vitro activity test; assay type: cell-based; conditions: P99, 20 h, read-out: Minimal Inhibitory Concentration (MIC)
# Method: as §1
# [3] = test system: Escherichia coli 078; test: MIC by agar dilution, in vitro activity test; assay type: cell-based; conditions: 37° C., 18 to 20 hours, read-out: Minimal Inhibitory Concentration (MIC)
# Method: as §1
# [4] = test system: Escherichia coli 1507E; test: MIC by agar dilution, in vitro activity test; assay type: cell-based; conditions: Escherichia coli 1507E; agar dilution, 37° C., 18 to 20 hours; read-out: Minimal Inhibitory Concentration (MIC)
# Method: as §1
# [5] = test system: Escherichia coli DC 0; test: MIC by agar dilution, in vitro activity test; assay type: cell-based; conditions: DC0, 37° C., 18 to 20 hours, read-out: Minimal Inhibitory Concentration (MIC)
# Method: as §1
# [6] = test system: Escherichia coli DC 2; test: MIC by agar dilution, in vitro activity test; assay type: cell-based; conditions: DC2, 37° C., 18 to 20 hours, read-out: Minimal Inhibitory Concentration (MIC)
# Method: as §1
# [7] = test system: Escherichia coli TEM; test: MIC by agar dilution, in vitro activity test; assay type: cell-based; conditions: 20 h, read-out: Minimal Inhibitory Concentration (MIC)
# Method: as §1
# [8] = test system: Klebsiella aerogenes 1082E; test: MIC by agar dilution, in vitro activity test; assay type: cell-based; conditions: 37° C., 18 to 20 hours, read-out: Minimal Inhibitory Concentration (MIC)
# Method: as §1
# [9] = test system: Klebsiella aerogenes 1522E; test: MIC by agar dilution, in vitro activity test; assay type: cell-based; conditions: Klebsiella aerogenes 1522E; agar dilution, 37° C., 18 to 20 hours; read-out: Minimal Inhibitory Concentration (MIC)
# Method: as §1
# [10] = test system: Pseudomonas aeruginosa 1592E; test: MIC by agar dilution, in vitro activity test; assay type: cell-based; conditions: 37° C., 18 to 20 hours, read-out: Minimal Inhibitory Concentration (MIC)
# Method: as §1
# [11] = test system: Pseudomonas aeruginosa 1771M; test: MIC by agar dilution, in vitro activity test; assay type: cell-based; conditions: 20 h, read-out: Minimal Inhibitory Concentration (MIC)
# Method: as §1
# [12] = test system: Pseudomonas aeruginosa 9071; test: MIC by agar dilution, in vitro activity test; assay type: cell-based; conditions: 37° C., 18 to 20 hours, read-out: Minimal Inhibitory Concentration (MIC)
# Method: as §1
# [13] = test system: Salmonella typhimurium; test: MIC by agar dilution, in vitro activity test; assay type: cell-based; conditions: Salmonella enterica, 37° C., 18 to 20 hours, read-out: Minimal Inhibitory Concentration (MIC)
# Method: as §1
# [14] = test system: Staphylococcus aureus 285; test: MIC by agar dilution, in vitro activity test; assay type: cell-based; conditions: 37° C., 18 to 20 hours, read-out: Minimal Inhibitory Concentration (MIC)
# Method: as §1
# [15] = test system: Staphylococcus aureus 503; test: MIC by agar dilution, in vitro activity test; assay type: cell-based; conditions: 37° C., 18 to 20 hours, read-out: Minimal Inhibitory Concentration (MIC)
# Method: as §1
# [16] = test system: Staphylococcus aureus SG511; test: MIC by agar dilution, in vitro activity test; assay type: cell-based; conditions: 37° C., 18 to 20 hours, read-out: Minimal Inhibitory Concentration (MIC)
# Method: as §1
# [17] = test system: Streptococcus faecium MD 8b; test: MIC by agar dilution, in vitro activity test; assay type: cell-based; conditions: Enterococcus faecium, MD8B, 20 h, read-out: Minimal Inhibitory Concentration (MIC)
# Method: as §1
# [18] = test system: Streptococcus pyogenes 71A; test: MIC by agar dilution, in vitro activity test; assay type: cell-based; conditions: 37° C., 18 to 20 hours, read-out: Minimal Inhibitory Concentration (MIC)
# Method: as §1
# [19] = test system: Pseudomonas aeruginosa 1771; test: MIC by agar dilution, in vitro activity test; assay type: cell-based; conditions: 37° C., 18 to 20 hours, read-out: Minimal Inhibitory Concentration (MIC)
# Method: These MIC values were determined by agar dilution method: that is, two-fold dilutions of each of the test compounds were made and dispersed in a Mueller-Hinton Broth medium.
# [20] = test system: Pseudomonas aeruginosa; test: MIC by agar dilution, comparison in words; assay type: cell-based; conditions: against Pseudomonas aeruginosa; vs Cefpirome
# Method: as §1
# [21] = Acute toxicity study; assay type: in vivo; conditions: mouse, in vivo
# Method: In order to illustrate usefulness of the compounds of the present invention, acute toxicity test of the compounds synthesized in the above Examples were carried out. Each dose of the compounds dissolved in saline and buffer solution (PH=7.0) was administered by intravenous or subcutaneous injection. Mortalities of the animals was recorded seven days latter.
# .asterisk-pseud. Mouse: Male ICR strain, 4 weeks
compound,measurement,setting,value
"CC[N+](C)(CC=CC(N)=O)C/C=C/C1=C(C(=O)[O-])N2C(=O)[C@@H](NC(=O)/C(=N\OC)c3nsc(N)n3)[C@H]2SC1 (stereo partly drawn) [Example 13, 7β-[(Z)-2-(5-amino-1,2,4-thiadiazol-3-yl)-2-methoxyiminoacetamido]-3-[(E)-3-[(1-carbamoyl-1-propen-3-yl)-3-ethylmethylammonio]-1-propen-1-yl]3-cephem-4-carboxylate]",MIC,[1],0.05 µg/mL
same,MIC,[2],1.6 µg/mL
same,MIC,[3],0.05 µg/mL
same,MIC,[4],0.1 µg/mL
same,MIC,[5],0.025 µg/mL
same,MIC,[6],0.2 µg/mL
same,MIC,[7],0.05 µg/mL
same,MIC,[8],3.1 µg/mL
same,MIC,[9],0.2 µg/mL
same,MIC,[10],1.6 µg/mL
same,MIC,[11],0.4 µg/mL
same,MIC,[12],3.1 µg/mL
same,MIC,[13],0.2 µg/mL
same,MIC,[14],0.8 µg/mL
same,MIC,[15],0.8 µg/mL
same,MIC,[16],0.8 µg/mL
same,MIC,[17],> 100 µg/mL
same,MIC,[18],0.025 µg/mL
same,MIC,[19],1.6 µg/mL
same,MICs compared with Cefpirome,[20],superior to that of Cefpirome
same,LD50 at 168 h,"[21]; iv, i.v, male ICR mouse, 4 weeks, mortality at seven days, read-out: LD50 i.v",> 2000 mg/kg
same,LD50 at 168 h,"[21]; iv, intravenous routes, read-out: acute toxicity in intravenous routes",> 2000 mg/kg
same,LD50 at 168 h,"[21]; sc, s.c, male ICR mouse, 4 weeks, mortality at seven days, read-out: LD50 s.c",> 3000 mg/kg
